Laboratory results as given in ChEMBL document CHEMBL5625210, “5-Cyano substituted diarylpyridines as potent HIV-1 NNRTIs: Rational design, synthesis, and activity evaluation” (Eur J Med Chem, 2023).

Legend:
[1] = system: Human immunodeficiency virus 1; assay: Antiviral activity against HIV-1 F227L/V106A mutant infected in human MT4 cells assessed as protection against virus-induced cytopathic effect incubated for 5 days by MTT assay; assay type: functional, organism-based; settings: Human immunodeficiency virus 1, MT4, 120 h
[2] = system: Human immunodeficiency virus 1; assay: Antiviral activity against wild type HIV-1 IIIB infected in human MT4 cells assessed as protection against virus-induced cytopathic effect incubated for 5 days by MTT assay; assay type: functional, organism-based; settings: Human immunodeficiency virus 1, IIIB, MT4, 120 h
[3] = system: Human immunodeficiency virus 1; assay: Antiviral activity against HIV-1 Y181C mutant infected in human MT4 cells assessed as protection against virus-induced cytopathic effect incubated for 5 days by MTT assay; assay type: functional, organism-based; settings: Human immunodeficiency virus 1, MT4, 120 h
[4] = system: Human immunodeficiency virus 1; assay: microbe, parasite or virus in culture; settings: Human immunodeficiency virus 1, MT4, 120 h
Description: Antiviral activity against HIV-1 RES056 mutant infected in human MT4 cells assessed as protection against virus-induced cytopathic effect incubated for 5 days by MTT assay

[5] = Cytotoxicity against human MT4 cells assessed as reduction in cell viability incubated for 5 days by MTT assay; assay type: toxicity, cell-based; settings: time 5 day
in vitro = settings: human, MT4 cells
Description: Selectivity index, ratio of CC50 for cytotoxicity against human MT4 cells to EC50 for antiviral activity against wild type HIV-1 IIIB infected in human MT4 cells

[6] = system: Human immunodeficiency virus 1; assay: Antiviral activity against HIV-1 Y188L mutant infected in human MT4 cells assessed as protection against virus-induced cytopathic effect incubated for 5 days by MTT assay; assay type: functional, organism-based; settings: Human immunodeficiency virus 1, MT4, 120 h
[7] = system: Human immunodeficiency virus 1; assay: Antiviral activity against HIV-1 […] mutant infected in human MT4 cells assessed as protection against virus-induced cytopathic effect incubated for 5 days by MTT assay; assay type: functional, organism-based; settings: Human immunodeficiency virus 1, MT4, 120 h
[8] = system: Human immunodeficiency virus 1; assay: Antiviral activity against HIV-1 K103N mutant infected in human MT4 cells assessed as protection against virus-induced cytopathic effect incubated for 5 days by MTT assay; assay type: functional, organism-based; settings: Human immunodeficiency virus 1, MT4, 120 h
[9] = system: Human immunodeficiency virus 1; assay: Antiviral activity against HIV-1 E138K mutant infected in human MT4 cells assessed as protection against virus-induced cytopathic effect incubated for 5 days by MTT assay; assay type: functional, organism-based; settings: Human immunodeficiency virus 1, MT4, 120 h
[10] = system: Human immunodeficiency virus 2; assay: Antiviral activity against wild type HIV-2 ROD infected in human MT4 cells assessed as protection against virus-induced cytopathic effect incubated for 5 days by MTT assay; assay type: functional, organism-based; settings: Human immunodeficiency virus 2, ROD, MT4, 120 h
[11] = target: Human immunodeficiency virus type 1 reverse transcriptase (Human immunodeficiency virus 1, UniProt Q72547); assay: Inhibition of wild type HIV-1 reverse transcriptase assessed as inhibition of biotin-dUTP incorporation using ABTS as substrate incubated for 1 hrs by ELISA analysis

Structure (SMILES)	EC50 [1]	EC50 [2]	EC50 [3]	EC50 [4]	CC50 at 120 h [5]	selectivity ratio (in vitro)	EC50 [6]	EC50 [7]	EC50 [8]	EC50 [9]	EC50 [10]	IC50 [11]
Cc1cn([C@@H]2C[C@@H](N=[N+]=[N-])[C@H](CO)O2)c(=O)[nH]c1=O	37.8 nM	30 nM	22.1 nM	28.8 nM	> 7480 nM	> 250	21 nM	10.5 nM	29.6 nM	23.6 nM	0.036 nM	–
Cc1cc(C#N)cc(C)c1Oc1nc(NC2CCN(Cc3ccc(S(C)(=O)=O)cc3)CC2)c(C#N)cc1Cl	–	21.8 nM	–	–	> 227000 nM	> 10400	–	–	–	–	> 227 nM	449 nM
Cc1cc(C#N)cc(C)c1Oc1ccc(C#N)c(Nc2ccc(C#N)c(C#N)c2)n1	–	115 nM	–	–	> 320000 nM	> 2780	–	–	–	–	> 320 nM	697 nM
Cc1cc(C#N)cc(C)c1Oc1nc(Nc2ccc(C#N)cc2)c(C#N)cc1Cl	–	28.7 nM	–	–	240000 nM	8340	–	–	–	–	> 240 nM	153 nM
Cc1cc(C#N)cc(C)c1Oc1nc(NC2CCN(Cc3ccc(S(N)(=O)=O)cc3)CC2)c(C#N)cc1Cl	–	32.7 nM	–	–	22600 nM	691	–	–	–	–	> 22.6 nM	466 nM
Cc1cc(C#N)cc(C)c1Oc1nc(Nc2ccc(C#N)c(F)c2)c(C#N)cc1F	710 nM	10.4 nM	1930 nM	> 218000 nM	218000 nM	20900	16700 nM	316 nM	540 nM	141 nM	> 218 nM	143 nM
Cc1cc(C#N)cc(C)c1Oc1ccc(C#N)c(Nc2ccc(C#N)cc2)n1	10900 nM	7.82 nM	1540 nM	> 65200 nM	> 65200 nM	> 8330	≥ 33000 nM	123 nM	446 nM	54.8 nM	> 326 nM	94 nM
Cc1cc(C#N)cc(C)c1Oc1nc(NC2CCN(Cc3ccc(S(N)(=O)=O)cc3)CC2)c(C#N)cc1F	234 nM	11.2 nM	44.9 nM	260 nM	25200 nM	2250	157 nM	43 nM	16.8 nM	52.4 nM	> 25.2 nM	292 nM
Cc1cc(C#N)cc(C)c1Oc1ccc(C#N)c(NC2CCN(Cc3ccc(S(N)(=O)=O)cc3)CC2)n1	194 nM	3.87 nM	36.8 nM	2780 nM	21800 nM	5630	114 nM	73.6 nM	19.4 nM	19.4 nM	> 21.8 nM	205 nM
Cc1cc(C#N)cc(C)c1Oc1ccc(C#N)c(Nc2ccc(CN3CCN(S(=O)(=O)N(C)C)CC3)cc2)n1	–	197 nM	–	–	5170 nM	26	–	–	–	–	> 5.17 nM	1550 nM
Cc1cc(C#N)cc(C)c1Oc1nc(Nc2ccc(C#N)cc2)c(C#N)cc1F	≥ 17400 nM	7.47 nM	22400 nM	> 62300 nM	> 62300 nM	> 8330	> 62300 nM	1140 nM	2040 nM	341 nM	> 311 nM	112 nM
Cc1cc(C#N)cc(C)c1Oc1nc(Nc2ccc(C#N)c(F)c2)c(C#N)cc1Cl	–	25 nM	–	–	282000 nM	11300	–	–	–	–	> 282 nM	98 nM
Cc1cc(C#N)cc(C)c1Oc1nc(Nc2ccc(CN3CCN(S(=O)(=O)N(C)C)CC3)cc2)c(C#N)cc1Cl	–	69 nM	–	–	178000 nM	2580	–	–	–	–	> 178 nM	686 nM
Cc1cc(C#N)cc(C)c1Oc1nc(Nc2ccc(CN3CCN(S(C)(=O)=O)CC3)cc2)c(C#N)cc1F	–	44.9 nM	–	–	213000 nM	4740	–	–	–	–	> 213 nM	294 nM
Cc1cc(C#N)cc(C)c1Oc1nc(Nc2ccc(CN3CCN(S(=O)(=O)N(C)C)CC3)cc2)c(C#N)cc1F	–	200 nM	–	–	149000 nM	744	–	–	–	–	> 149 nM	2600 nM
Cc1cc(C#N)cc(C)c1Oc1nc(NC2CCN(Cc3ccc(S(C)(=O)=O)cc3)CC2)c(C#N)cc1F	67.5 nM	5.62 nM	28.1 nM	171 nM	27500 nM	4890	73.1 nM	22.5 nM	9.37 nM	18.7 nM	> 27 nM	341 nM
Cc1cc(C#N)cc(C)c1Oc1ccc(C#N)c(Nc2ccc(CN3CCN(S(C)(=O)=O)CC3)cc2)n1	–	40.7 nM	–	–	18000 nM	444	–	–	–	–	> 18 nM	277 nM
Cc1cc(C#N)cc(C)c1Oc1ccc(C#N)c(Nc2ccc(C#N)c(F)c2)n1	–	1460 nM	–	–	27300 nM	19	–	–	–	–	> 27.3 nM	12000 nM
Cc1cc(C#N)cc(C)c1Oc1nc(NC2CCN(Cc3ccc(C(N)=O)cc3)CC2)c(C#N)cc1F	347 nM	6.02 nM	84.2 nM	3590 nM	24100 nM	4010	227 nM	100 nM	44.1 nM	26.1 nM	> 24.5 nM	303 nM
Cc1cc(C#N)cc(C)c1Oc1nc(Nc2ccc(C#N)c(C#N)c2)c(C#N)cc1F	–	26.9 nM	–	–	> 306000 nM	> 11400	–	–	–	–	> 306 nM	230 nM
O=C1Nc2ccc(Cl)cc2[C@@](C#CC2CC2)(C(F)(F)F)O1 [EFAVIRENZ]	890 nM	2.53 nM	6.34 nM	–	> 6340 nM	–	355 nM	31.8 nM	114 nM	6.34 nM	–	–
Cc1cc(C#N)cc(C)c1Oc1nc(Nc2ccc(C#N)cc2)nc(N)c1Br [ETRAVIRINE]	–	–	8.96 nM	20.2 nM	> 4600 nM	–	18.4 nM	4.6 nM	3.45 nM	4.82 nM	–	–
Cc1ccnc2c1NC(=O)c1cccnc1N2C1CC1 [NEVIRAPINE]	> 9510 nM	–	4210 nM	> 9510 nM	> 9510 nM	–	> 9510 nM	1990 nM	–	76.1 nM	> 9.51 nM	–
